Like-named read-outs stand apart in the source and are kept apart here.
Tests used:
[1] = tested on: anaesthetized dog; assay: Activity on the cerebral circulation, anaesthetized dog; assay type: in vivo; settings: dog, 5 mg/kg i.v. rapid injection; for change in vivo at 5 mg/kg: Canis lupus familiaris, iv
Method: The activity on the cerebral circulation was tested on an anaesthetized dog (sodium pentobarbital 30 mg/kg/i.v.). The vertebral artery flow was measured by means of an electromagnetic perivascular or ultrasonic Doppler effect probe. The intracerebral vascular resistance was estimated by the back pressure of the internal carotid artery. […] The increase in the extraction of cerebral oxygen was estimated by the following equation:(A-V)/A in which: A represents the volume of oxygen in the arterial blood (% volume) measured by hemoreflectometry (KIPP and ZONEN's apparatus) and quantity determination of the haemoglobin (DRABKIN's method). V represents the volume of oxygen in the cerebral venous blood (internal maxillary vein). […] It should be noted that the compounds tested were injected intravenously (rapid injection).

[2] = tested on: anaesthetized dog; assay: Antiangorous activity on anaesthetized dog: consumption of oxygen in the left ventricule and cardiac effort (KATZ's index); assay type: in vivo; settings: for inhibition in vivo at 2.3 mg/kg / inhibition in vivo at 2.5 mg/kg / inhibition in vivo at 0.625 mg/kg / inhibition in vivo at […]: Canis lupus familiaris, iv; for inhibition in vivo at […]: 0.15 mg/kg i.v. slow perfusion
Outline: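 Dogs anaesthetized with sodium pentobarbital 30 mg/kg i.v.; compounds given by slow i.v. perfusion. Left ventricular O2 consumption = coronary venous flow (Morawitz cannula in coronary sinus) × arteriovenous O2 difference; cardiac effort (Katz index) = mean arterial pressure × heart rate from D2 ECG.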

[3] = in vivo; settings: for LD50: read-out: Toxicity: LD50; for mortality: read-out: Toxicity (Mortality)
Source text: *LD50 or percentage of mortality which is given between brackets

[4] = read-out: Internal carotid artery back pressure
[5] = read-out: Systemic average arterial pressure
[6] = read-out: Vertebral artery flow
[7] = 2.5 mg/kg i.v. slow perfusion, read-out: Diminution in consumption of O2
[8] = 2.5 mg/kg i.v. slow perfusion, read-out: Diminution in the cardiac effort (IK)
[9] = 0.625 mg/kg i.v. slow perfusion
[10] = 0.625 mg/kg i.v. slow perfusion, read-out: Diminution in consumption of O2
[11] = 0.625 mg/kg i.v. slow perfusion, read-out: Diminution in the cardiac effort (IK)

`COc1cc(/C=C/C(=O)N2CCCN(CC(O)COc3ccccc3)CC2)cc(OC)c1OC` (centres unmarked) [760 388] showed a change in vivo at 5 mg/kg [1, 4] of -65%, a change in vivo at 5 mg/kg [1, 5] of -44% and a change in vivo at 5 mg/kg [1, 6] of 225%. The “Internal carotid artery back pressure: in time” value [1] was 50 min, the Systemic average arterial pressure: in time [1] was 50 min and the “Vertebral artery flow: in time” value [1] was 50 min.
In the case of `COc1cc(/C=C/C(=O)N2CCN(CC(O)COc3cc(OC)c(OC)c(OC)c3)CC2)cc(OC)c1OC` (centres unmarked) [760 506], the “Diminution in consumption of O2: in time” value ([2]; 2.3 mg/kg i.v. slow perfusion) is reported as 60 min, the “Diminution in the cardiac effort (IK): in time” value (from here on “Diminution in the cardiac effort”) ([2]; 2.3 mg/kg i.v. slow perfusion) is reported as 60 min and the inhibition in vivo at 2.3 mg/kg ([2]; 2.3 mg/kg i.v. slow perfusion, read-out: Diminution in consumption of O2) is reported as 67%. It also gave an inhibition in vivo at 2.3 mg/kg ([2]; 2.3 mg/kg i.v. slow perfusion, read-out: Diminution in the cardiac effort (IK)) of 26% and an LD50 ([3]; iv) of 182 mg/kg.
In the case of `COc1cc(/C=C/C(=O)N2CCN(CC(O)COc3ccc(O)c4c3OCCO4)CC2)cc(OC)c1OC` (centres unmarked) [780 120, 1-[3-(4-hydroxy-2,3-ethylenedioxy)phenoxy-2-hydroxy]propyl-4-(3,4,5-trimethoxy-cinnamoyl)piperazine, hydrated chlorhydrate], the “Diminution in consumption of O2: in time” value ([2]; 2.5 mg/kg i.v. slow perfusion) is reported as 30 min, the “Diminution in the cardiac effort” value ([2]; 2.5 mg/kg i.v. slow perfusion) is reported as 15 min and the inhibition in vivo at 2.5 mg/kg [2, 7] is reported as 65%. The inhibition in vivo at 2.5 mg/kg [2, 8] was 29% and the LD50 ([3]; iv) was 340 mg/kg.
For `C=CCc1ccccc1OCC(O)CN1CCN(C(=O)/C=C/c2cc(OC)c(OC)c(OC)c2)CC1` (centres unmarked) [760 518], the change in vivo at 5 mg/kg [1, 4] was -48%, the change in vivo at 5 mg/kg [1, 5] was -15% and the change in vivo at 5 mg/kg [1, 6] was 180%. The “Internal carotid artery back pressure: in time” value [1] was 5 min, the Systemic average arterial pressure: in time [1] was 5 min and the “Vertebral artery flow: in time” value [1] was 5 min.
In the case of `CCCC(=O)Nc1ccc(OCC(O)CN2CCN(C(=O)/C=C/c3cc(OC)c(OC)c(OC)c3)CC2)cc1` (centres unmarked) [760 892], the “Diminution in consumption of O2: in time” value ([2]; 2.5 mg/kg i.v. slow perfusion) is reported as 60 min, the “Diminution in the cardiac effort” value ([2]; 2.5 mg/kg i.v. slow perfusion) is reported as 45 min and the inhibition in vivo at 2.5 mg/kg [2, 7] is reported as 74%. For the same molecule, the inhibition in vivo at 2.5 mg/kg [2, 8] was 22% and the mortality ([3]; iv, 400 mg/kg i.v.) was 40%.
For `COc1cc(/C=C/C(=O)N2CCN(CC(O)COc3ccc(NC(=O)c4ccccc4)c4c3OCCO4)CC2)cc(OC)c1OC` (centres unmarked) [770 529], the “Diminution in consumption of O2: in time” value [2, 9] was 30 min, the “Diminution in the cardiac effort” value [2, 9] was 30 min and the inhibition in vivo at 0.625 mg/kg [2, 10] was 56%. The inhibition in vivo at 0.625 mg/kg [2, 11] was 29% and the mortality ([3]; po, p.o.: 2000 mg/kg) was 22%.
Molecule `CCNC(=O)Nc1ccc(OCC(O)CN2CCN(C(=O)/C=C/c3cc(OC)c(OC)c(OC)c3)CC2)c2c1OCCO2` (centres unmarked) [770 307] has an inhibition in vivo at […] ([2]; read-out: Diminution in consumption of O2) of 43%, an inhibition in vivo at […] ([2]; read-out: Diminution in the cardiac effort (IK)) of 11% and a mortality ([3]; iv, 367 mg/kg i.v.) of 10%.
In the case of `COc1cc(/C=C/C(=O)N2CCN(CC(O)COc3ccc(NC(C)=O)c4c3OCCCO4)CC2)cc(OC)c1OC` (centres unmarked) [780 393], the “Diminution in consumption of O2: in time” value [2, 9] is reported as 30 min, the “Diminution in the cardiac effort” value [2, 9] is reported as 30 min and the inhibition in vivo at 0.625 mg/kg [2, 10] is reported as 24%. The inhibition in vivo at 0.625 mg/kg [2, 11] was 45% and the mortality ([3]; iv, 400 mg/kg i.v.) was 10%.
For `CCCC(=O)Nc1ccc(OCC(O)CN2CCN(C(=O)/C=C/c3cc(OC)c(OC)c(OC)c3)CC2)c2c1OCCO2` (centres unmarked) [770 610], the “Diminution in consumption of O2: in time” value [2, 9] was 60 min, the “Diminution in the cardiac effort” value [2, 9] was 45 min and the inhibition in vivo at 0.625 mg/kg [2, 10] was 56%. For the same molecule, the inhibition in vivo at 0.625 mg/kg [2, 11] was 34% and the mortality ([3]; po, p.o.: 2000 mg/kg) was 0%.
With `COc1cc(/C=C/C(=O)N2CCN(CC(O)COc3ccc(C(C)=O)c4c3OCCO4)CC2)cc(OC)c1` (centres unmarked) [770 538] the “Diminution in consumption of O2: in time” value ([2]; 2.5 mg/kg i.v. slow perfusion) was 15 min, the “Diminution in the cardiac effort” value ([2]; 2.5 mg/kg i.v. slow perfusion) was 25 min and the inhibition in vivo at 2.5 mg/kg [2, 7] was 54%. It also gave an inhibition in vivo at 2.5 mg/kg [2, 8] of 28% and an LD50 ([3]; iv) of 198 mg/kg.

— patent US4178442A, “Novel cinnamoyles piperazines and homopiperazines, the method of preparing them and their application in therapeutics” (Delalande S. A., priority 1977, dated 1979)
